Values of other authors, collected in US11123368B2, “Immunosuppressive blood cells and methods of producing the same” (Universitatsklinikum Heidelberg, priority 2008, dated 2021).

Test system: multiple sclerosis
Details: clinical trials

For glatiramer acetate, the “relapse rate of MS” value is given as “significantly reduced” and the progression of disability (MS) is given as “slowed progression of disability”.
